Test results published in patent US20250170252A1, “QUINONE PROTECTED FORMS AND CONJUGATES” (CAMBRIDGE ENTERPRISE LIMITED, priority 2022, published 2025).

Columns and labels:
[1] = Glucuronide kinetics assay (release of β-lapachone after β-glucuronide deprotection); type: physicochemical; settings: pH 7, 37° C., after β-glucuronide deprotection; first experiments
Procedure: (§1) Glucuronide prodrug (37a, b, c, d) was dissolved in DMSO to a concentration of 10 mM. A 100 mM stock solution of warfarin in DMSO was also prepared. To obtain deprotected para-hydroxybenzyl ketol species, the glucuronide stock solution was dissolved in PBS with 16.7% DMF to a concentration of 1.7 mM. 15 μL of a stock solution of R-glucuronidase from E. coli K-12 (Roche #03707580001, 140 U/mL) was added to 900 μL of this stock and incubated for 20 min at 37° C. 15 μL of a 100 mM stock of warfarin internal standard in DMSO was added. Reactions were then set up immediately. For a reaction, 30 μL of the amino-benzyl ketol/standard stock was added to 195 μL of citrate-phosphate buffer at the specified pH. Test samples were incubated at 37° C. with shaking. At the recorded time points, 20 μL aliquots of the reactions were analysed by HPLC (254 nm, Agilent 1260 Infinity). HPLC conditions: column Agilent InfinityLab Poroshell 120 SB—C18 2.7 μm, 50×4.6 mm; solvent system A=H2O+0.1% TFA, B=acetonitrile+0.1% TFA; flow=1 mL/min. Gradient: t=0-1 min 0% B, t=1-2 min 0-30% B, t=2-17 min 30-40% B, t=17-17.1 min 40-100% B, t=17.1-18 min 100% B, t=18-23 min 0% B. Relative peak area represents raw peak area (mAU*s) normalized to raw peak area of the warfarin internal standard. Values recorded are averages of three independent reactions and error bars display standard error of the mean. Values were fitted to first-order kinetics using GraphPad Prism 9 software. A positive control experiment was performed under identical conditions with known substrate 4-nitrophenyl-β-D-glucuronide (Sigma Aldrich) to confirm enzyme activity.

[2] = Stability of glucuronide prodrug to incubation at pH 7.4 at 37° C.; type: physicochemical; settings: pH 7.4, 37° C., 6 days; no β-lapachone observed
Procedure: An experiment testing the stability of compound 37a to incubation at pH 7.4 at 37° C. was also performed.

[3] = target: T1, β-glucuronidase (Escherichia coli, UniProt P05804); test: Incubation with β-glucuronidase (sugar deprotection); type: biochemical, E. coli K-12; settings: pH 7.4, 37° C.
T1 construct: purchased Roche 03707580001
Procedure: as §1, with “Values were fitted to first-order kinetics using GraphPad Prism 9 software. A positive control experiment was performed under identical conditions with known substrate 4-nitrophenyl-β-D-glucuronide (Sigma Aldrich) to confirm enzyme activity.” left out

[4] = system: range of cell lines; test: Toxicity of Gluc-PHB-BL against a range of cell lines with and without added β-glucuronidase; type: cell-based
Procedure: (§2) Assays assessing cytotoxicity of β-lapachone and derivatives were performed by CellTiter-Blue assay (Promega) according to the manufacturer's instructions. Briefly, adherent cancer-cell lines were plated at 20,000 cells/well in 96 well plates or suspension cell lines were plated at a concentration of 2×10^5 cells/mL in 24 well plates. Compound stocks in media were made by dilution of DMSO stocks containing the compound of interest to obtain a final in-plate DMSO concentration of only 0.1%. Incubation was performed for 48 h. Following incubation, media was replaced with media containing CellTiter-Blue (Promega) in 1:10 dilution and the plates were incubated for 1.5-4 h. The fluorescence of the plates was recorded (excitation 555 nm, emission 585 nm, MiniMax i3x Reader, Molecular Devices).
(§3) Cell viability was calculated by division of the fluorescence intensity of treated wells by that of the calculated average fluorescence intensity of replicate negative control wells containing cells with 0.1% DMSO only. Values and reported error bars represent the mean and standard error of the mean of three triplicate repeats for each concentration tested. IC50 values were calculated using GraphPad Prism 8 software.
(§4) The potential of compound 37a, glucuronide-PHB-BL, as a prodrug was investigated. As discussed above, at physiological pH the compound has a relatively slow-release rate. Toxicity of Gluc-PHB-BL 37a was tested against a range of cell lines with and without added β-glucuronidase. Addition of the enzyme mimics conditions of the solid tumour environment.

[5] = system: HeLa; test: Toxicity with/without β-glucuronidase, HeLa; type: cell-based
Procedure: as §2, §3, §4

[6] = system: SkBr-3; test: Toxicity with/without β-glucuronidase, SkBr-3; type: cell-based
Procedure: as §2, §3, §4

[7] = system: HEK-293T; test: Toxicity with/without β-glucuronidase, HEK-293T; type: cell-based
Procedure: as §2, §3, §4

[8] = system: HL-60; test: Toxicity with/without β-glucuronidase, HL-60; type: cell-based
Procedure: as §2, §3, §4

[9] = system: MOLM-13; test: Toxicity with/without β-glucuronidase, MOLM-13; type: cell-based
Procedure: as §2, §3, §4

[10] = system: Panc-1 pancreatic cancer cell line; test: CellTiter Glo viability assay, Panc-1; type: cell-based
Procedure: (§5) For CellTiter Glo viability assays, 10,000 cells per well were plated on Day 1 and were allowed to adhere to the plate surface for 24 hours. Optimized concentration ranges of prodrugs were determined and made via serial dilution. […] Cells were incubated with compound for 48 hours and viability was assessed on Day 4 using the CellTiter Glo Viability assay which measures metabolically active cells by quantifying the amount of ATP present.
(§6) Panc-1 cells were obtained from Tony Kouzarides' lab in the Gurdon Institute at the University of Cambridge and put into culture at passage 10 containing DMEM media (Gibco) supplemented with 1% Pen-Strep antibiotic (Gibco), 1% L-glutamine, and 10% fetal bovine serum (FBS, sterile-filtered). Aspc-1 cells were bought commercially from the American Type Culture Collection (ATCC) and put into culture containing RPMI 1640 media (Gibco) supplemented with 1% Pen-Strep antibiotic (Gibco), 1% L-glutamine, and 20% fetal bovine serum (FBS, sterile-filtered). All cell lines were started at passage 10 and passaged every 3 days by centrifuging at 1000 rpm for 4 minutes.

[11] = system: Aspc-1 pancreatic cancer cell line; test: CellTiter Glo viability assay, Aspc-1; type: cell-based
Procedure: as §5, §6

[12] = Homo sapiens, read-out: IC50 Gluc-PHB-BL 37a

T1 sequence (P05804 whole entry): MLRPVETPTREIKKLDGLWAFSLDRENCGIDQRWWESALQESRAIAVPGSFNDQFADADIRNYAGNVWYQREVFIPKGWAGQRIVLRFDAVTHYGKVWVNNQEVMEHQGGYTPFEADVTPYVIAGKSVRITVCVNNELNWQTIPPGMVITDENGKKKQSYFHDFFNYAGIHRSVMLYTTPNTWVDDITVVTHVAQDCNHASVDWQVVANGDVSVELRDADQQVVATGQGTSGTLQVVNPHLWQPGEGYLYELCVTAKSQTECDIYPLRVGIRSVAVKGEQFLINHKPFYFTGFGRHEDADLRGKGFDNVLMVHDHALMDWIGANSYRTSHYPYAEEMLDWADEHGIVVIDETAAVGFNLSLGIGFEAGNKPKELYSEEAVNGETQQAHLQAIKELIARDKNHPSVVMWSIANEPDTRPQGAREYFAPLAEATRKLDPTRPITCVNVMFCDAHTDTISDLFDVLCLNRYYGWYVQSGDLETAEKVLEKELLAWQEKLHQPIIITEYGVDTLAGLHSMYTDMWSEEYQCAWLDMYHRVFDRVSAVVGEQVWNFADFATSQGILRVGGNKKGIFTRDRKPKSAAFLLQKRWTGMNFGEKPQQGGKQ

In the case of `CC1(C)CCC2=C(O1)c1ccccc1C(O)(Cc1ccc(O[C@@H]3O[C@H](C(=O)O)[C@@H](O)[C@H](O)[C@H]3O)cc1)C2=O` (stereo partly drawn) [Compound 37a, (2S,3S,4S,5R,6S)-3,4,5-trihydroxy-6-(4-((6-hydroxy-2,2-dimethyl-5-oxo-3,4,5,6-tetrahydro-2H-benzo[h]chromen-6-yl)methyl)phenoxy)tetrahydro-2H-pyran-2-carboxylic acid], the “release rate of β-lapachone, kobs” value [1] is reported as 1.09e-06 s⁻¹, the stability to incubation [2] is reported as “completely stable” and the sugar deprotection reaction [3] is reported as “rapid”. The “toxicity without added β-glucuronidase” value ([4]; concentrations up to 100 μM, apart from HEK-293T) was “not seen”, the “times less toxic than β-lapachone 1 (comparison of estimated IC50)” value ([4]; treated with β-glucuronidase, 48 h) was 3.5-9.7 times and the “IC50 (37a)/ IC50 (1)” value [5] was 9.74. For the same molecule, the IC50 [5, 12] was 41.5 µM, the IC50 ([6]; Homo sapiens, SK-BR-3, read-out: IC50 Gluc-PHB-BL 37a) was 24 µM and the “IC50 (37a)/ IC50 (1)” value ([6]; SkBr-3) was 8.73. For the same molecule, the “IC50 (37a)/ IC50 (1)” value [7] was 7.18, the IC50 [7, 12] was 20.9 µM and the “toxicity without added β-glucuronidase” value ([7]; up to 100 μM) was “low toxicity”. The “IC50 (37a)/ IC50 (1)” value ([8]; HL-60) was 3.51, the IC50 ([8]; Homo sapiens, HL-60, read-out: IC50 Gluc-PHB-BL 37a) was 15.2 µM and the IC50 ([9]; Homo sapiens, MOLM-13, read-out: IC50 Gluc-PHB-BL 37a) was 78.6 µM. For the same molecule, the “IC50 (37a)/ IC50 (1)” value ([9]; MOLM-13) was 6.50, the IC50 ([10]; Homo sapiens, PANC-1, 48 h) was 10.5 µM and the “toxicity without the β-glucuronidase enzyme” value ([10]; Panc-1, up to 100 μM) was “no toxicity”. The “toxicity without the β-glucuronidase enzyme” value ([11]; Aspc-1, up to 100 μM) was “no toxicity” and the IC50 ([11]; Homo sapiens, ASPC1, 48 h) was 17.4 µM.
